The values below come from patent publication US11884750B2, “Cationic cell penetrating peptides and the use thereof” (CELLTROY CO., LTD., priority 2021, dated 2024).

One test relates to SH-SY5Y cells. In words: Cell penetration efficiency in human neuroblastoma cells, 4 μM, flow cytometry. Particulars: one hour; for cell permeability compared with TAT: 4 μM FITC-conjugated CPP, flow cytometry; for Score / Score/TAT: 4 μM FITC-conjugated peptide; for Score: intracellular fluorescence by flow cytometry; for Score/TAT: ratio to FITC-conjugated TAT. The class given is cell-based. As for the experimental part:
The cell penetration efficiency of the cationic CPPs selected in Example 1 was evaluated in neuroblastoma. In further detail, SH-SYSY cells, which is a human neuroblastoma cell line, were seeded in 24-well plates to have a cell density of 1×10^7 cells/well, and cultured in 10% FBS-added DMEM under conditions of 37° C. and 5% CO2 for 24 hours. In addition, the cells were treated with 4 μM each of FITC-conjugated CPPs (C12, C14, C16, C31, C52, and C67), or FITC-conjugated TAT, and incubated for one hour. After the termination of the incubation, the cells were transferred to a sterile tube using 0.25% trypsin and centrifuged to remove the medium. Afterward, the cells were washed with 500 μL of D-PBS twice to completely remove the medium, and finally, resuspended in 400 μL of D-PBS and intracellular fluorescence was measured by flow cytometry (FACSCanto II).
(§1) To evaluate the cell penetration efficiency of the additionally selected cationic CPPs, an experiment was conducted using human epidermal cells or human neuroblastoma cells. In further detail, HaCAT cells, which is a human epidermal cell line, or SH-SYSY cells, which is a human neuroblastoma cell line, were seeded in 24-well plates to have a cell density of 1×10^7 cells/well and cultured in 10% FBS-added DMEM under conditions of 37° C. and 5% CO2 for 24 hours. In addition, the cells were treated with 4 μM each of FITC-conjugated peptides and FITC-conjugated TAT for one hour. After the completion of the culture, the cells were transferred to a sterile tube using 0.25% trypsin and centrifuged to remove the medium. Afterward, the cells were washed with 500 μL of D-PBS twice to completely remove the medium, and finally, resuspended in 400 μL of D-PBS and intracellular fluorescence was measured by flow cytometry (FACSCanto II).
(§2) Subsequently, to confirm whether the CPPs according to the present invention show excellent cell permeability into different types of cells/tissues, various tissue-derived cells were treated with biologically active molecule-conjugated CPPs to compare its delivery capacity with TAT. As in the previous examples, each cell was aliquoted in a plate at an appropriate density, and cultured in a 10% FBS-added medium under a condition of 37° C. and 5% CO2 for 24 hours. Subsequently, the cells were treated with 4 μM each of FITC-conjugated CPP or FITC-conjugated TAT and incubated for one hour. After the completion of the incubation, the cells were transferred to a sterile tube using 0.25% trypsin and centrifuged to remove the medium. Afterward, the cells were washed with 500 μL of D-PBS twice to completely remove the medium, and finally, resuspended in 400 μL of D-PBS and intracellular fluorescence was measured by flow cytometry (FACSCanto II).

A further test relates to HeLa cell line. In words: Cell penetration efficiency using cervical cancer cells. The class given is cell-based. The conditions noted are these: 4 μM FITC-conjugated CPP, one hour. As for the experimental part:
as §2

In the next test the test system is HEK293T cell line. As to the kind of experiment: Cell penetration efficiency using kidney cells. The class given is cell-based. Particulars: 4 μM FITC-conjugated CPP, one hour. How it is done: as §2
The next test has as its system HGB cell line. As to the kind of experiment: Cell penetration efficiency in glioblastoma cells. It counts as cell-based, human. The conditions noted are these: 4 μM FITC-conjugated CPP, one hour. As for the experimental part:
as §2

The next test relates to HT1080 cell line. As to the kind of experiment: Cell penetration efficiency using connective tissue (fibrosarcoma) cells. It counts as cell-based. Particulars: 4 μM FITC-conjugated CPP, one hour. As for the experimental part: as §2
The next test concerns SNU-46 cell line. In words: Cell penetration efficiency using laryngeal cells. The class given is cell-based. The conditions noted are these: SNU-46 laryngeal cells, 4 μM FITC-conjugated CPP, one hour. How it is done: as §2
The next test has as its system HaCAT cells. In words: Cell penetration efficiency in human epidermal (skin) cells, 4 μM, flow cytometry. The class given is cell-based. The conditions noted are these: 4 μM FITC-conjugated CPP, one hour. How it is done: The cell penetration efficiency of the cationic CPPs selected in Example 1 was evaluated using human epidermal cells. In further detail, HaCAT cells, which is a human epidermal cell line, were seeded in 24-well plates to have a cell density of 1×10^7 cells/well, and cultured in 10% FBS-added DMEM under conditions of 37° C. and 5% CO2 for 24 hours. Subsequently, the cells were treated 4 μM each of the FITC-conjugated CPP or FITC-conjugated TAT, and incubated for one hour. After the termination of the incubation, the cells were transferred to a sterile tube using 0.25% trypsin, and the medium was removed through centrifugation. Afterward, the cells were washed with 500 μL of D-PBS twice to completely remove the medium, and finally, resuspended in 400 μL of D-PBS and intracellular fluorescence was measured by flow cytometry (FACSCanto II).
as §1, §2
A general note: In flow cytometry, cells or beads pass a laser one at a time.

A further test concerns A-427 cell line. As to the kind of experiment: Cell penetration efficiency using lung cells. The class given is cell-based. Particulars: A-427 lung cells, 4 μM FITC-conjugated CPP, one hour. As for the experimental part:
as §2

A further test relates to HDF cell line. As to the kind of experiment: Cell penetration efficiency in skin cells (HDF). The class given is cell-based. The conditions noted are these: 4 μM FITC-conjugated CPP, one hour. As for the experimental part: as §2

With AIKRRRRRALAKRP [C148], in the test with SH-SY5Y cells, the “cell permeability compared with TAT” value is given as “higher cell permeability”, the Score is reported as 669 and the Score/TAT turned out to be 1.289. Besides, the “cell permeability compared with TAT” value in the test with HeLa cell line is reported as “higher cell permeability”.

In the test with SH-SY5Y cells, LRRVETLRRRKQPR [C319] displayed a Score of 436. Besides, in the test on SH-SY5Y cells, the Score/TAT was found to be 0.840. Moreover, the “cell permeability compared with TAT” value in the test with HeLa cell line and in the test with HEK293T cell line was “higher cell permeability” each time.

RVAALLRRRRRERP [C202]: the “cell permeability compared with TAT” value in the test on HGB cell line, in the test on SH-SY5Y cells, in the test on HeLa cell line and in the test on HT1080 cell line was “higher cell permeability” in each case. For the same sequence, the Score with SH-SY5Y cells is 727. The Score/TAT in the test on SH-SY5Y cells stood at 1.401.

For RPRRKKQAKRLGKR [C378], the “cell permeability compared with TAT” value with SNU-46 cell line is reported as “higher cell permeability”. In the test on SH-SY5Y cells, the Score turned out to be 400 and the Score/TAT came out at 0.771. Besides, the “cell permeability compared with TAT” value with HeLa cell line is recorded as “higher cell permeability”.

For YLRRKLRRRAGEPR [C230], in the test on SH-SY5Y cells, the Score is listed as 305 and the Score/TAT was 0.588. In addition, in the test with HeLa cell line, the “cell permeability compared with TAT” value is recorded as “higher cell permeability”. Moreover, the “cell permeability compared with TAT” value with HEK293T cell line is “higher cell permeability”.

With AVKRRRRRALAKRP [C149], in the test on SH-SY5Y cells, the “cell permeability compared with TAT” value was “higher cell permeability”, the Score came out at 657 and the Score/TAT is given as 1.266.

Regarding ARRLRRRTAKLPAR [C102], in the test with HGB cell line, the “cell permeability compared with TAT” value is given as “higher cell permeability”. Further, in the test with SH-SY5Y cells, the “cell permeability compared with TAT” value was “higher cell permeability”, the Score was 720 and the Score/TAT came out at 1.387. The “cell permeability compared with TAT” value in the test with HaCAT cells is given as “higher cell permeability”.

As to RALKLRRRRRAVLP [C68], in the test on SH-SY5Y cells, the Score stood at 0 and the Score/TAT was found to be 0.000.

For the sequence RRREPLRARARVRR [C387], the “cell permeability compared with TAT” value with SH-SY5Y cells, in the test on HeLa cell line and in the test with HEK293T cell line was “higher cell permeability” each time. In addition, in the test on SH-SY5Y cells, the Score stood at 560. In the test on SH-SY5Y cells, the Score/TAT was determined as 1.079.

Turning to RKVLPRKQKRKRVK [C214], in the test on SH-SY5Y cells, the Score is on record as 459 and the Score/TAT was determined as 0.884. Also, in the test with HeLa cell line, the “cell permeability compared with TAT” value was “higher cell permeability”.

Turning to RLKEERLKKRRRSP [C264], in the test on SH-SY5Y cells, the Score was 268 and the Score/TAT is recorded as 0.516.

For the sequence RLRAIRRRRRSLDP [C219], in the test with SH-SY5Y cells, the Score came to 453 and the Score/TAT is reported as 0.873. Also, the “cell permeability compared with TAT” value in the test on HeLa cell line was “higher cell permeability”.

In the case of RVRAILRRTRRKEP [C236], the Score with SH-SY5Y cells worked out at 395. The Score/TAT in the test on SH-SY5Y cells is listed as 0.761. Besides, the “cell permeability compared with TAT” value in the test on HeLa cell line, with HT1080 cell line and in the test on HEK293T cell line was “higher cell permeability” each time.

On to KARARRILRRRETP [C190], for which the “cell permeability compared with TAT” value with HGB cell line is reported as “higher cell permeability”. For the same sequence, in the test with SH-SY5Y cells, the “cell permeability compared with TAT” value is “higher cell permeability”, the Score came to 579 and the Score/TAT is on record as 1.116.

With RALRRRAARAARRP [C37], in the test with SH-SY5Y cells, the Score is listed as 0 and the Score/TAT was determined as 0.000.

For the sequence KARARRILRRREAP [C191], in the test on HGB cell line, the “cell permeability compared with TAT” value is reported as “higher cell permeability”. Moreover, in the test on SH-SY5Y cells, the “cell permeability compared with TAT” value is given as “higher cell permeability”, the Score amounted to 592 and the Score/TAT was determined as 1.141. Moreover, the “cell permeability compared with TAT” value in the test with HeLa cell line is “higher cell permeability”.

Take RALRRRLHRQRKLP [C355]: the “cell permeability compared with TAT” value with HGB cell line, in the test on HeLa cell line and in the test on HEK293T cell line was “higher cell permeability” throughout. In the test with SH-SY5Y cells, the Score was 497. Also, the Score/TAT with SH-SY5Y cells worked out at 0.958.

For the sequence RPRRKKQVKRIGKR [C379], in the test on SH-SY5Y cells, the Score worked out at 391 and the Score/TAT is reported as 0.753. Further, the “cell permeability compared with TAT” value in the test with HeLa cell line is “higher cell permeability”.

As for RVRTLLRRRRTERP [C402], in the test with SH-SY5Y cells, the Score is on record as 437 and the Score/TAT is reported as 0.842. In the test on HT1080 cell line, the “cell permeability compared with TAT” value is “higher cell permeability”. Also, the “cell permeability compared with TAT” value in the test on A-427 cell line is “higher cell permeability”.

For the sequence RPIRKLVRKAREKR [C168], the “cell permeability compared with TAT” value in the test with HGB cell line is “higher cell permeability”. In the test on SH-SY5Y cells, the “cell permeability compared with TAT” value was “higher cell permeability”, the Score is 608 and the Score/TAT is given as 1.171.

Regarding RERKRANRKKLKKP [C310], in the test with HGB cell line, the “cell permeability compared with TAT” value was “higher cell permeability”. For the same sequence, in the test with SH-SY5Y cells, the Score worked out at 452 and the Score/TAT is 0.871. Besides, the “cell permeability compared with TAT” value in the test on HEK293T cell line is “higher cell permeability”.

Turning to SVKRRRRRALAKRP [C341], the “cell permeability compared with TAT” value with HGB cell line, in the test with SH-SY5Y cells, in the test with HeLa cell line, with HT1080 cell line and in the test with HEK293T cell line was “higher cell permeability” throughout. Besides, the Score in the test with SH-SY5Y cells was found to be 747. For the same sequence, the Score/TAT in the test on SH-SY5Y cells is given as 1.439.

Turning to RRRQRKEKVRNQKP [C57], in the test on SH-SY5Y cells, the Score is on record as 0 and the Score/TAT is on record as 0.000.

Take LDRERRRKKAERRP [C312]: in the test with SH-SY5Y cells, the Score came out at 271 and the Score/TAT was determined as 0.522.

For the sequence RERKRAARKKIKKP [C210], in the test with SH-SY5Y cells, the Score stood at 386 and the Score/TAT amounted to 0.744.

Take RRKVVREKRKRKLP [C203]: in the test on SH-SY5Y cells, the “cell permeability compared with TAT” value is listed as “higher cell permeability”, the Score turned out to be 544 and the Score/TAT is reported as 1.048. In addition, the “cell permeability compared with TAT” value with HeLa cell line is listed as “higher cell permeability”.

As to ARVRARLRRRRIEP [C229], in the test on SH-SY5Y cells, the “cell permeability compared with TAT” value is “higher cell permeability”, the Score was 536 and the Score/TAT is listed as 1.033. The “cell permeability compared with TAT” value in the test with HeLa cell line is given as “higher cell permeability”. In addition, in the test on HEK293T cell line, the “cell permeability compared with TAT” value is given as “higher cell permeability”.

As for RRALKRRAMRARRP [C170], the “cell permeability compared with TAT” value in the test on HGB cell line, with SH-SY5Y cells, in the test on HeLa cell line and in the test on HDF cell line was “higher cell permeability” in each case. Also, in the test on SH-SY5Y cells, the Score is 605. Moreover, the Score/TAT with SH-SY5Y cells is recorded as 1.166.

Regarding RSPARKRVRAQKKR [C360], in the test with SH-SY5Y cells, the Score came out at 388 and the Score/TAT turned out to be 0.748.
